Results from patent US20230098438A1, “OXAZINE-BASED WATER-SOLUBLE FLUOROPHORE COMPOUNDS FOR IN VIVO NERVE IMAGING” (Oregon Health & Science University, priority 2020, published 2023).
Entries after “also recorded” stand apart in the source; their conditions may differ.

Experiments:
nerve tissue = settings: previous studies; fluorescence nerve imaging; cited from earlier work
[1] = Solubility testing in ultrapure water; settings: kinetic from dmso stock
Experimental: Each compound was dissolved at high concentration (50 mg/mL) in dimethyl sulfoxide (DMSO) to create a stock solution. Stock solutions were spiked into ultrapure water beginning with a 50 μg/mL concentration and the aqueous solution was vortexed to mix. Resulting solutions were centrifuged at 15,000 rpm for 2 min and examined for a pellet or precipitation signifying insoluble compound.

[2] = NOAEL (no-observed-adverse-effect-level)
[3] = no-observed-adverse-effect-level

Compound | nerve specificity (nerve tissue) | solubility [1] [µg/mL] | NOAEL ([2]; in vivo) [mg/kg] | NOAEL [2, 3] [mg/kg]
CCNc1cc2oc3cc(=[N+](CC)CC)ccc-3nc2cc1C [Comparative Example No. 1, 3-(diethyl-λ4-azaneylidene)-N-ethyl-8-methyl-3H-phenoxazin-7-amine, reference compound] | high nerve specificity | 100 | 3 | 
CCNc1cc2oc3c/c(=[N+](\CC)CCCS(=O)(=O)[O-])ccc-3nc2cc1C [Example No. 1, (E)-3-(ethyl(7-(ethylamino)-8-methyl-3H-phenoxazin-3-ylidene)ammonio)propane-1-sulfonate] |  | > 5000 | 30 | 
CCNc1cc2oc3cc(=[N+](CCOCCOCCOC)CCOCCOCCOC)ccc-3nc2cc1C [Example No. 9, N-(7-(ethylamino)-8-methyl-3H-phenoxazin-3-ylidene)-2-(2-(2-methoxyethoxy)ethoxy)-N-(2-(2-(2-methoxyethoxy)ethoxy)ethyl)ethan-1-aminium] |  | > 5000 | 30 | 
CC/N=c1/cc2oc3cc(NCC)c(C)cc3nc-2cc1C [Oxazine 4] | high nerve-specificity; also recorded: high nerve specificity |  |  | 
(E)-N-ethyl-N-(7-(ethylamino)-8-methyl-3H-phenoxazin-3-ylidene)-2-(2-(2-methoxyethoxy)ethoxy)ethan-1-aminium [Example No. 7] |  |  |  | 5
(E)-N^1-ethyl-N^1-(7-(ethylamino)-8-methyl-3H-phenoxazin-3-ylidene)-N^3,N^3,N^3-trimethylpropane-1,3-diaminium [Example No. 2] |  |  |  | 2
N-(7-(ethylamino)-8-methyl-3H-phenoxazin-3-ylidene)-2-(2-methoxyethoxy)-N-(2-(2-methoxyethoxy)ethyl)ethan-1-aminium [Example No. 8] |  |  |  | 10
N-(7-(ethylamino)-8-methyl-3H-phenoxazin-3-ylidene)-2-methoxy-N-(2-methoxyethyl)ethan-1-aminium [Example No. 5] |  |  |  | 4
